Data published in PubChem BioAssay AID1963978 (Molecular Pharmacology Branch, DTP, NCI, 2024).

System: 616215-338-R-J1-PDC spheroids with HUVEC/MSC, viability
Assay: Anticancer human tumor 616215-338-R-J1-PDC patient-derived colon adenocarcinoma cell line growth inhibition [PI3K]
Conditions: for IC50: curve of first compound; for viability, T/C: stronger effect = lower value
How it was run: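 Combination activity was assessed by viability in multicellular tumor spheroids carrying HUVEC and MSC components. Agents were tested with PI3K inhibitors from a Cmax-based top dose (or 10 microM) downward in half-log increments.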
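Also: spheroids exposed to agents for seven days before the viability read.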

Compound CNC(=O)c1ccc(N2C(=S)N(c3ccc(C#N)c(C(F)(F)F)c3)C(=O)C2(C)C)cc1F + COc1c(OCCCN2CCOCC2)ccc2c3n(c(=NC(=O)c4cnc(N)nc4)nc12)CCN3 has an IC50 (second compound 0.00316 µM) of over 10 µM, an IC50 (second compound 0.01 µM) of over 10 µM and an IC50 (second compound 0.0316 µM) of over 10 µM. It also gave an IC50 (second compound 0.1 µM) of over 10 µM, an IC50 (second compound 0.316 µM) of under 0.0316 µM and an IC50 (second compound 1 µM) of under 0.0316 µM. The viability, T/C (second compound 0.00316 µM, first compound 0.0316 µM) was 92.8%, the viability, T/C (second compound 0.00316 µM, first compound 0.1 µM) was 92.1% and the viability, T/C (second compound 0.00316 µM, first compound 0.316 µM) was 95.9%. The viability, T/C (second compound 0.00316 µM, first compound 1 µM) was 92%, the viability, T/C (second compound 0.00316 µM, first compound 3.16 µM) was 99% and the viability, T/C (second compound 0.00316 µM, first compound 10 µM) was 93%. It also gave a viability, T/C (second compound 0.01 µM, first compound 0.0316 µM) of 98.7%, a viability, T/C (second compound 0.01 µM, first compound 0.1 µM) of 108% and a viability, T/C (second compound 0.01 µM, first compound 0.316 µM) of 103%. It also gave a viability, T/C (second compound 0.01 µM, first compound 1 µM) of 93.3%, a viability, T/C (second compound 0.01 µM, first compound 3.16 µM) of 111% and a viability, T/C (second compound 0.01 µM, first compound 10 µM) of 87%. It also gave a viability, T/C (second compound 0.0316 µM, first compound 0.0316 µM) of 103%, a viability, T/C (second compound 0.0316 µM, first compound 0.1 µM) of 98.1% and a viability, T/C (second compound 0.0316 µM, first compound 0.316 µM) of 99.8%. The viability, T/C (second compound 0.0316 µM, first compound 1 µM) was 105%, the viability, T/C (second compound 0.0316 µM, first compound 3.16 µM) was 96.5% and the viability, T/C (second compound 0.0316 µM, first compound 10 µM) was 89.1%. For the same compound, the viability, T/C (second compound 0.1 µM, first compound 0.0316 µM) was 97.4%, the viability, T/C (second compound 0.1 µM, first compound 0.1 µM) was 89.6% and the viability, T/C (second compound 0.1 µM, first compound 0.316 µM) was 91.5%. It also gave a viability, T/C (second compound 0.1 µM, first compound 1 µM) of 107%, a viability, T/C (second compound 0.1 µM, first compound 3.16 µM) of 84.6% and a viability, T/C (second compound 0.1 µM, first compound 10 µM) of 67%. The viability, T/C (second compound 0.316 µM, first compound 0.0316 µM) was 50.8%, the viability, T/C (second compound 0.316 µM, first compound 0.1 µM) was 45.3% and the viability, T/C (second compound 0.316 µM, first compound 0.316 µM) was 38.1%. For the same compound, the viability, T/C (second compound 0.316 µM, first compound 1 µM) was 43.1%, the viability, T/C (second compound 0.316 µM, first compound 3.16 µM) was 41.1% and the viability, T/C (second compound 0.316 µM, first compound 10 µM) was 29.2%. For the same compound, the viability, T/C (second compound 1 µM, first compound 0.0316 µM) was 21.8%, the viability, T/C (second compound 1 µM, first compound 0.1 µM) was 22.5% and the viability, T/C (second compound 1 µM, first compound 0.316 µM) was 22.8%. For the same compound, the viability, T/C (second compound 1 µM, first compound 1 µM) was 22%, the viability, T/C (second compound 1 µM, first compound 3.16 µM) was 25.6% and the viability, T/C (second compound 1 µM, first compound 10 µM) was 14.4%.

For Cn1cnc2c(F)c(Nc3ccc(Br)cc3Cl)c(C(=O)NOCCO)cc21 + COc1c(OCCCN2CCOCC2)ccc2c3n(c(=NC(=O)c4cnc(N)nc4)nc12)CCN3, the IC50 (second compound 0.00316 µM) was 2.23 µM, the IC50 (second compound 0.01 µM) was 1.35 µM and the IC50 (second compound 0.0316 µM) was 0.81 µM. For the same compound, the IC50 (second compound 0.1 µM) was 0.413 µM, the IC50 (second compound 0.316 µM) was under 0.00949 µM and the IC50 (second compound 1 µM) was under 0.00949 µM. It also gave a viability, T/C (second compound 0.00316 µM, first compound 0.00949 µM) of 93.6%, a viability, T/C (second compound 0.00316 µM, first compound 0.03 µM) of 99.3% and a viability, T/C (second compound 0.00316 µM, first compound 0.0949 µM) of 91.1%. The viability, T/C (second compound 0.00316 µM, first compound 0.3 µM) was 83.3%, the viability, T/C (second compound 0.00316 µM, first compound 0.949 µM) was 72.8% and the viability, T/C (second compound 0.00316 µM, first compound 3 µM) was 41.9%. The viability, T/C (second compound 0.01 µM, first compound 0.00949 µM) was 99.3%, the viability, T/C (second compound 0.01 µM, first compound 0.03 µM) was 95% and the viability, T/C (second compound 0.01 µM, first compound 0.0949 µM) was 85.4%. The viability, T/C (second compound 0.01 µM, first compound 0.3 µM) was 86.5%, the viability, T/C (second compound 0.01 µM, first compound 0.949 µM) was 54.5% and the viability, T/C (second compound 0.01 µM, first compound 3 µM) was 38.1%. It also gave a viability, T/C (second compound 0.0316 µM, first compound 0.00949 µM) of 99.3%, a viability, T/C (second compound 0.0316 µM, first compound 0.03 µM) of 94.8% and a viability, T/C (second compound 0.0316 µM, first compound 0.0949 µM) of 73.7%. The viability, T/C (second compound 0.0316 µM, first compound 0.3 µM) was 76.3%, the viability, T/C (second compound 0.0316 µM, first compound 0.949 µM) was 42.5% and the viability, T/C (second compound 0.0316 µM, first compound 3 µM) was 24.7%. It also gave a viability, T/C (second compound 0.1 µM, first compound 0.00949 µM) of 94%, a viability, T/C (second compound 0.1 µM, first compound 0.03 µM) of 86.7% and a viability, T/C (second compound 0.1 µM, first compound 0.0949 µM) of 76.1%. For the same compound, the viability, T/C (second compound 0.1 µM, first compound 0.3 µM) was 58.6%, the viability, T/C (second compound 0.1 µM, first compound 0.949 µM) was 30.9% and the viability, T/C (second compound 0.1 µM, first compound 3 µM) was 13.2%. The viability, T/C (second compound 0.316 µM, first compound 0.00949 µM) was 37.6%, the viability, T/C (second compound 0.316 µM, first compound 0.03 µM) was 47.4% and the viability, T/C (second compound 0.316 µM, first compound 0.0949 µM) was 36.9%. The viability, T/C (second compound 0.316 µM, first compound 0.3 µM) was 24.9%, the viability, T/C (second compound 0.316 µM, first compound 0.949 µM) was 11.7% and the viability, T/C (second compound 0.316 µM, first compound 3 µM) was 1.63%. It also gave a viability, T/C (second compound 1 µM, first compound 0.00949 µM) of 22.2%, a viability, T/C (second compound 1 µM, first compound 0.03 µM) of 12.8% and a viability, T/C (second compound 1 µM, first compound 0.0949 µM) of 6.6%. It also gave a viability, T/C (second compound 1 µM, first compound 0.3 µM) of 2.1%, a viability, T/C (second compound 1 µM, first compound 0.949 µM) of 0.32% and a viability, T/C (second compound 1 µM, first compound 3 µM) of 0.32%.
